According to patent US10292940B2, “Hyaluronic acid-based amphiphilic polymer, preparation method and application thereof” (BrightGene Bio-Medical Technology Co., Ltd., priority 2015, dated 2019):
Read-outs that look alike come from different tables or passages of the source.

Key:
MCF-7/ADR tumor [1] = assay: Ex vivo imaging of organs of tumor-bearing nude mice; assay type: in vivo; conditions: DOX about 15 mg/kg, 10 h
Method: After 10 h, the heart, liver, spleen, lung, kidney and tumor block were collected, washed and fixed on a black plastic plate, which was then placed in a Maestro in vivo imaging system, and the intensity of DOX distribution in vivo was measured at an emission wavelength of 523 nm.

[2] = Blood circulation in mice after tail vein injection; conditions: DOX 15 mg/kg, up to 24 h
Method: Six about 5-8 weeks old nude mice weighing 18-22 g were randomly divided into two groups, and each group was administered with DOX-loaded HA-Lys-LA crosslinked nanoparticles (MnHA=35 kDa, DS=10%, DLC=12%) or free DOX (DOX dosage being 15 mg/kg) via tail vein injection. 10 μL of blood was withdrawn from the tail vein each time at different time points after injection for 2 minutes, 15 minutes, 30 minutes, 1 h, 2 h, 4 h, 6 h, 8 h, 12 h, 24 h. After the blood was withdrawn, the blood sample was weighed and dissolved in 100 μL of 1% Triton solution, and then 1 mL of 0.75 mol/L hydrochloric acid isopropanol solution was added thereto. The mixture was allowed to stand overnight in dark at −20° C. After centrifugation, the supernatant was subjected to fluorescence test. % ID/g=(FL sample×(V Triton+V hydrochloric acid))/(M blood×FL standard×V standard×standard dilution factor)×100%
Six about 5-8 weeks old nude mice weighing 18-22 g were randomly divided into two groups, and each group was administered with DOX-loaded HA-Lys-LA crosslinked nanoparticles (MnHA=35 kDa, DS=40%, DLC=20%) or free DOX (DOX dosage being 15 mg/kg) via tail vein injection. […] After centrifugation, the supernatant was subjected to fluorescence test. % ID/g=(FL sample×(V Triton+V hydrochloric acid))/(M blood×FL standard×V standard×standard dilution factor)×100% […]

[3] = tested on: LP1 tumor (multiple myeloma)
Method: (§1) Tumor-bearing nude mice with a tumor size of 50 min^3 were randomly divided into three groups (six in each group), and this day is set to day 0. […] Effects of drug-loaded micelles on tumor growth in nude mice were regularly measured with a caliper. Changes in body weight of nude mice were regularly weighed with a balance. The tumor size was obtained based on a formula V=0.5×L×W×H (L is the length of the longest points of the tumor; W is the length of the shortest points of the tumor; H is the height of the tumor). After 24 days, one mouse was randomly taken from each group and was killed by neck and spine dislocation, and the heart, liver and tumor of each mouse were removed and fixed with 4% formaldehyde, sliced and stained with hematoxylin and eosin (H & E) and subjected to histological analysis. The remaining nude mice were still observed. Mice were considered to be died when the nude mice died during treatment, or the tumor volume exceeded 1000 mm^3. Relative tumor volume (%)=tumor volume/tumor volume on day 0×100%. Relative weight change (%)=body weight of nude mic body weight of nude mice on day 0×100%.

MCF-7/ADR tumor [4] = assay: Anti-tumor effect in nude mice bearing drug-resistant breast-cancer tumor
Text: as §1, with “mm^3” for “min^3”, “V=0.5×L×W×H” for “V=0.5×L×W×H (L”, “mice/body” for “mic body”

MCF-7/ADR tumor [5] = assay: Bio-distribution in organs of tumor-bearing nude mice; assay type: in vivo; conditions: DOX about 15 mg/kg, tail vein, after 10 h

Q: Which “DOX distribution in tumor and organs (ex vivo fluorescence)” value (MCF-7/ADR tumor [1]) does the source give for `COc1cccc2c1C(=O)c1c(O)c3c(c(O)c1C2=O)C[C@@](O)(C(=O)CO)C[C@@H]3O[C@H]1C[C@H](N)[C@H](O)[C@H](C)O1` [free DOX, doxorubicin] here?
A: The value was “almost did not concentrate at the tumor site”.

Q: What about the “blood circulation (DOX in mice blood)” value [2] of the same compound?
A: The value was “almost not detected in mice blood after 2 h”.

Q: And the “reduction of body weight of nude mice” value ([3]; DOX about 7.5 mg/kg)?
A: The value was “about 34%”.

Q: What about the “side effects / tolerance” value ([3]; DOX about 7.5 mg/kg) of the same compound?
A: The value was “large side effects”.

Q: What about the “time within which all mice died” value ([3]; DOX about 7.5 mg/kg) of the same compound?
A: Its value is at most 15 days.

Q: And the “tumor volume growth / therapeutic effect” value ([3]; DOX about 7.5 mg/kg, tail vein)?
A: The value was “could not inhibit tumor growth”.

Q: What about the “side effects / tolerance” value ([3]; DOX about 7.5 mg/kg, listed as free drug) of the same compound?
A: The value was “not tolerated”.

Q: And the “H&E histology of heart and liver” value ([3]; after 24 days)?
A: The value was “liver corresponding to the free DOX group was greatly damaged, and myocardial cell atrophied”.

Q: What about the “H&E histology of tumor tissue” value ([3]; after 24 days) of the same compound?
A: The value was “grew vigorously”.

Q: And the “reduction of body weight of nude mice” value (MCF-7/ADR tumor [4]; DOX about 7.5 mg/kg)?
A: Its value is 28%.

Q: And the side effects (MCF-7/ADR tumor [4]; DOX about 7.5 mg/kg)?
A: Its side effects is “large side effects”.

Q: What about the “time within which all mice died” value (MCF-7/ADR tumor [4]; DOX about 7.5 mg/kg) of the same compound?
A: Its value is at most 28 days.

Q: What about the tumor volume growth (MCF-7/ADR tumor [4]; DOX about 7.5 mg/kg, tail vein) of the same compound?
A: The tumor volume growth was “could not inhibit tumor growth”.

Q: And the “H&E histology of heart and liver” value (MCF-7/ADR tumor [4]; after 24 days)?
A: The value was “liver corresponding to the free DOX group was greatly damaged, and myocardial cell atrophied”.

Q: What about the “H&E histology of tumor tissue” value (MCF-7/ADR tumor [4]; after 24 days) of the same compound?
A: Its value is “grew vigorously”.

Q: And the “enrichment of DOX at the tumor site” value (MCF-7/ADR tumor [5])?
A: The value was 0.63 % ID/g.
